Calls of active or inactive are those of the source. How the calls were made is not given here.

This assay deals with HIV-1 integrase / human LEDGF/p75 complex. The assay can be described thus: blockers of LEDGF/p75-dependent integrase activity – biochemical, TR-FRET, dose response (AID 1053172). The note with it: TR-FRET integrase-LEDGF/p75 DNA integration.
Broadly, the IC50 is the concentration at which inhibition is half-maximal. As to `O=C(O)c1ccc(-n2cccc2/C=C2/SC(=O)N(CC(=O)N3CCCC3)C2=O)cc1`, the IC50 was 2.46 µM. For `C/C(=N\NC(=O)c1cc(O)ccc1O)c1cccc(NC(=O)c2ccc(Cl)cc2)c1` the value was “inactive”; for `Cc1c(O)cc2c(c1O)C(=O)CC(c1ccc(O)cc1)O2` (stereo not drawn), 9.39 µM. Consider `Oc1cccc(CN2CCOCC2)c1O`, for which the IC50 entry was “inactive”. For `Oc1ccc(/C=N/N=C(c2ccccc2)c2ccccc2)c(O)c1O` the value was 1.08 µM; for `Nc1ccc2nc3c(=O)[nH]c(=S)[nH]c3nc2c1`, 1.36 µM. Take `C=C1c2cccc(O)c2C(O)=C2C(=O)[C@]3(O)C(O)=C(C(N)=O)C(=O)[C@@H](N(C)C)[C@@H]3[C@@H](O)[C@H]12`: the IC50 was 2.73 µM. As for `O=C(O)C1Nc2c(O)cccc2C2C=CCC12` (stereo not drawn), the half-inhibitory concentration (IC50) was 0.754 µM. For `CC1CCCC(C)N1/N=C/c1ccc(O)c(O)c1` (stereo not drawn) the value was 3.37 µM; for `O=c1c(O)c(-c2ccc(O)c(O)c2)oc2cc(O)ccc12`, 0.378 µM. Consider `O=C1OC(c2cccs2)=N/C1=C/c1ccc(-c2cccc(C(=O)O)c2)o1`, for which the IC50 entry is “inactive”. Consider `Oc1cccc(/C=N/NC(=S)Nc2cccnc2)c1O`, for which the IC50 result is “inactive”. In the case of `O=C(O)c1ccc2nc(-c3ccco3)c(-c3ccco3)nc2c1`, the half-inhibitory concentration (IC50) is 1.92 µM. As to `Cc1ccc(N2C(=O)NC(=O)/C(=C/c3ccoc3)C2=O)cc1`, the 50% inhibitory concentration (IC50) is 2 µM. For `O=C(NN1C(=O)/C(=C/C=C/c2ccco2)SC1=S)c1ccncc1` the value was 1.2 µM. Take `O=S(=O)(O)c1ccc(O)c2cc(Nc3ccccc3)ccc12`: the IC50 is 0.723 µM.

`O=C(Cc1nnc(NC(=O)c2ccccc2)s1)N/N=C\c1ccc(O)c(O)c1`: the concentration for half-maximal inhibition (IC50) is 2.21 µM. On to `O=C1NC(=S)NC(=O)C1=Cc1cccn1-c1ccc(O)cc1`, for which the IC50 was 2.21 µM. For `CCN(CC)CCCNc1ccc2ncn3c4ccc(O)cc4c(=O)c1c23` the value was > 36.5 µM (inactive); for `NC1=NC(=O)/C(=C\c2ccco2)S1`, 3.99 µM. For the compound `Brc1ccc(-c2nn3c(-c4ccco4)nnc3s2)o1`, the IC50 result was “inactive”. `O=C(O)Cc1c[nH]c2cccc(O)c12`: the half-inhibitory concentration (IC50) is 7.41 µM.

Regarding `COc1ccc(/C=N\NC(=O)c2cc(O)c(O)c(O)c2)cc1CN1CCN(c2ccc(F)cc2)CC1`, the IC50 was > 36.5 µM (inactive).

For `O=C(O)c1ccc(-n2cccc2/C=C2/NC(=O)N(c3cccc(Cl)c3)C2=O)cc1`, the 50% inhibitory concentration (IC50) is 4.25 µM. As for `O=c1cc(-c2ccc(O)c(O)c2)oc2c(C3O[C@H](CO)[C@@H](O)[C@H](O)[C@H]3O)c(O)cc(O)c12` (stereo partly drawn), the figure is 1.26 µM. For `COP(=O)(OC)c1ccc(NCc2cc(O)ccc2O)cc1` the value was “inactive”; for `Oc1ccc(C[C@H]2NCCc3cc(O)c(O)cc32)cc1O`, 3.23 µM; for `NS(=O)(=O)c1ccc(N/N=C/c2ccc(O)c(O)c2O)c([N+](=O)[O-])c1`, 1.24 µM. As for `C=CCn1c(SCC(=O)c2ccc(O)c(O)c2)nnc1-c1cccnc1`, the half-maximal inhibitory concentration (IC50) is 2.39 µM. On to `CN(C)c1ccc(O)c2c1CC1CC3[C@@H](N(C)C)C(=O)C(C(N)=O)=C(O)[C@]3(O)C(=O)C1=C2O` (stereo partly drawn), for which the half-maximal inhibitory concentration (IC50) is 3.74 µM. As for `COc1ccc(NS(=O)(=O)c2ccc3c(c2)[C@H]2C=CC[C@H]2[C@@H](c2ccc(C(=O)O)cc2)N3)cc1`, the half-inhibitory concentration (IC50) was 2.12 µM. As for `Oc1ccc(NCc2cccc(OCc3ccccc3)c2)cc1`, the figure is > 36.5 µM (inactive); as for `O=c1cc(-c2ccc(O)cc2)oc2c(O)c(O)c(O)c(O)c12`, 0.341 µM.

In the case of `c1coc(-c2ccc3nncn3c2)c1`, the IC50 is 1.18 µM.

Regarding `O=C1NC(=Nc2ccc(O)cc2)S/C1=C\C=C\c1ccco1`, the IC50 is 4.08 µM. As to `C[C@@H]1O[C@@H](Oc2c(-c3ccc(O)c(O)c3)oc3cc(O)cc(O)c3c2=O)[C@H](O)[C@H](O)[C@H]1O`, the IC50 was 2.61 µM. For the compound `COc1ccccc1OCC(=O)N/N=C/C=C/c1ccc([N+](=O)[O-])o1`, the IC50 was > 36.5 µM (inactive). As for `Cc1nc2ccccc2c(=O)n1/N=C/c1ccc(O)c(O)c1O`, the figure is 2.45 µM. As for `O=C1Nc2ccccc2/C1=N\N=C\c1ccc(O)c(O)c1`, the figure is 0.696 µM. On to `CCOC(=O)c1cc2c(=Cc3ccc(N(C)C)cc3)c3ccccc3n2[n+]1C`, for which the IC50 entry is “inactive”. As to `Oc1ccc(-c2cn3c(n2)SCC3)cc1O`, the concentration for half-maximal inhibition (IC50) is 1.48 µM. For the compound `CC(C(=O)O)N1C(=O)/C(=C/C=C/c2ccco2)SC1=S` (stereo not drawn), the IC50 is 0.452 µM. Turning to `CCOc1ccc(Nc2ccc(N)c(S(=O)(=O)O)c2)cc1`, the IC50 result was “inactive”. As to `CC(=O)Nc1ccc2c(COC(=O)CC3Sc4ccccc4NC3=O)cc(=O)oc2c1` (stereo not drawn), the IC50 is > 12.2 µM (inactive).

For `Nc1nc(-c2ccco2)c(-c2ccco2)s1`, the IC50 is > 36.5 µM (inactive). Take `Cc1cc2nc3ccc(N(C)C)cc3nc2cc1N`: the IC50 was > 36.6 µM (inactive). Regarding `O=C(CCCN1C(=O)/C(=C/c2ccco2)SC1=S)Nc1ccccc1C(=O)O`, the half-maximal inhibitory concentration (IC50) was 8.37 µM. In the case of `CCn1c(C)nc2cc(C(=O)N/N=C/c3ccc(O)c(O)c3O)ccc21`, the IC50 was 0.429 µM. Regarding `C=C(C)C(=O)Nc1cccc(C2=NOC3(C2)C[C@H](C(N)=O)N(C(=O)/C=C/C)C3)c1` (stereo partly drawn), the 50% inhibitory concentration (IC50) is 4.72 µM. `N#C/C(=C\c1ccc(O)c(O)c1)C(=O)c1ccc(O)c(O)c1`: the IC50 was 0.0795 µM.

Regarding `Cc1ccc(N=C2NC(=O)/C(=C/C=C/c3ccco3)S2)cc1`, the half-maximal inhibitory concentration (IC50) was 9.14 µM.

In the case of `O=C1c2cc(O)c(O)cc2OC(c2ccc(O)c(O)c2)C1O` (stereo not drawn), the IC50 was 4.69 µM. `O=C(O)c1ccc(NC2=C/C(=N/S(=O)(=O)c3cccs3)c3ccccc3C2=O)cc1`: the half-inhibitory concentration (IC50) is 0.996 µM. On to `c1coc(-c2nnc(-c3ccco3)nn2)c1`, for which the IC50 is 1.75 µM. With `O=C1c2c(O)cc(O)cc2O[C@@]12c1c(cc(O)c3c1O[C@H](c1ccc(O)cc1)[C@@H](O)C3)O[C@@H]2c1ccc(O)cc1`, the IC50 result was “inactive”.

Consider `COC1=CC(=O)C(C2CC(=O)c3c(O)cc(O)cc3O2)=CC1=O` (stereo not drawn), for which the IC50 is > 36.5 µM (inactive). On to `O=C(N/N=C/c1cccc(F)c1)c1cc(-c2ccco2)nc2ccccc12`, for which the 50% inhibitory concentration (IC50) was 3.85 µM. As to `COc1cc(/C=C(\C#N)C(=O)c2ccc(O)c(O)c2)cc(I)c1O`, the IC50 was 0.752 µM. For `CCOc1ccc(NC(=O)CN(C)C(=O)c2cc3c(s2)CCC3)cc1OCC`, the IC50 was 9.57 µM. Take `Cc1ccc(/C=C2/C(=O)c3ccc(C(=O)O)cc3C2=O)o1`: the IC50 was 2.28 µM. `Cc1ccc(-c2csc(NS(=O)(=O)c3cccc(F)c3)n2)o1`: the IC50 result is “inactive”.

As to `Cn1cccc1CC(=O)NN=C/C=C\c1ccco1`, the IC50 is > 36.5 µM (inactive). With `N#Cc1c(NC(=O)CSc2ncnc3sccc23)oc(-c2ccco2)c1-c1ccco1`, the IC50 entry was “inactive”. As for `O=C1/C(=C\c2ccc(O)c(O)c2)C(c2ccccc2)=NN1c1ccccc1`, the IC50 result was “inactive”.

Consider `O=C(CCN1C(=O)/C(=C/c2ccco2)SC1=S)Nc1ccc(O)cc1C(=O)O`, for which the IC50 entry is “inactive”. For `O=C(N/N=C\C=C\c1ccc([N+](=O)[O-])o1)c1cccs1` the value was > 36.5 µM (inactive); for `CC(C)(CS(=O)(=O)[O-])NC(=O)CC[N+](C)(C)CCO`, 3.06 µM; for `O=C(COC(=O)c1c2c(nc3ccccc13)/C(=C\c1ccco1)CC2)NC1CCCC1`, 6.44 µM.
